Laboratory results: ChEMBL document CHEMBL1208792, “A novel series of [3.2.1] azabicyclic biaryl ethers as alpha3beta4 and alpha6/4beta4 nicotinic receptor agonists” (Bioorg Med Chem Lett, 2010)

How the values were obtained:
[1] = molecular target: Neuronal acetylcholine receptor subunit alpha-7 (Homo sapiens, UniProt P36544); test: Displacement of [3H]epibatidine from alpha7 nicotinic receptor expressed in human HEK293 cells; format: cell-based
[2] = molecular target: Voltage-gated inwardly rectifying potassium channel KCNH2 (Homo sapiens, UniProt Q12809); test: Displacement of [3H]dofetilide from human ERG expressed in HEK293 cells; format: cell-based
[3] = Agonist activity at human alpha6/4beta4 nicotinic receptor expressed in human HEK cells assessed as intracellular calcium […] by FLIPR relative to control; format: functional, HEK293
MDCK [4] = test: (§1) Efflux ratio of permeability from basolateral to apical side over apical to basolateral side of MDCK cells expressing human MDR gene; format: ADME, cell-based, Canis lupus familiaris; details: dog, MDCK
[5] = Displacement of [3H]epibatidine from alpha6/4beta4 nicotinic receptor expressed in human HEK293 cells; format: cell-based
[6] = molecular target: Acetylcholine receptor; alpha1/beta1/delta/gamma (Homo sapiens, UniProt P02708+P07510+P11230+Q07001); test: Binding affinity to alpha-1-beta-gamma-delta nicotinic receptor; format: protein-complex assay
[7] = molecular target: T1, Neuronal acetylcholine receptor; alpha3/beta4 (Homo sapiens, UniProt P30926+P32297); test: Agonist activity at alpha3beta4 nicotinic receptor expressed in human HEK cells assessed as intracellular calcium efflux by FLIPR
[8] = molecular target: Neuronal acetylcholine receptor; alpha4/beta2 (Homo sapiens, UniProt P17787+P43681); test: Displacement of [3H]epibatidine from alpha4beta2 nicotinic receptor expressed in human HEK293 cells; format: cell-based
MDCK [9] = test: (§2) Apparent permeability from apical to basolateral side of MDCK cells; format: ADME, cell-based, Canis lupus familiaris; details: dog
[10] = molecular target: T1, Neuronal acetylcholine receptor; alpha3/beta4; test: Displacement of [3H]epibatidine from alpha3beta4 nicotinic receptor expressed in human HEK293 cells; format: cell-based
[11] = molecular target: T1, Neuronal acetylcholine receptor; alpha3/beta4; test: Agonist activity at alpha3beta4 nicotinic receptor expressed in human HEK cells assessed as intracellular calcium […] by FLIPR relative to control; format: functional, cell-based; details: HEK293
[12] = Agonist activity at human alpha6/4beta4 nicotinic receptor expressed in human HEK cells assessed as intracellular calcium […] by FLIPR; format: functional, cell-based, HEK293
[13] = system: human MDR (P-glycoprotein); test: as §1; format: ADME, cell-based, Canis lupus familiaris; details: dog, MDCK-MDR1
[14] = as §2; format: ADME, cell-based, Canis lupus familiaris; details: dog
Mus musculus [15] = test: Antipsychotic effect in sc dosed CD1 mouse assessed as prepulse inhibition; format: functional; details: read-out: MED
Mus musculus [16] = test: Antipsychotic effect in sc dosed CD1 mouse assessed as inhibition of mescaline-induced scratching behavioral response; format: functional
[17] = Homo sapiens, HEK293, read-out: EC50

Chain of Voltage-gated inwardly rectifying potassium channel KCNH2 (Q12809 whole entry): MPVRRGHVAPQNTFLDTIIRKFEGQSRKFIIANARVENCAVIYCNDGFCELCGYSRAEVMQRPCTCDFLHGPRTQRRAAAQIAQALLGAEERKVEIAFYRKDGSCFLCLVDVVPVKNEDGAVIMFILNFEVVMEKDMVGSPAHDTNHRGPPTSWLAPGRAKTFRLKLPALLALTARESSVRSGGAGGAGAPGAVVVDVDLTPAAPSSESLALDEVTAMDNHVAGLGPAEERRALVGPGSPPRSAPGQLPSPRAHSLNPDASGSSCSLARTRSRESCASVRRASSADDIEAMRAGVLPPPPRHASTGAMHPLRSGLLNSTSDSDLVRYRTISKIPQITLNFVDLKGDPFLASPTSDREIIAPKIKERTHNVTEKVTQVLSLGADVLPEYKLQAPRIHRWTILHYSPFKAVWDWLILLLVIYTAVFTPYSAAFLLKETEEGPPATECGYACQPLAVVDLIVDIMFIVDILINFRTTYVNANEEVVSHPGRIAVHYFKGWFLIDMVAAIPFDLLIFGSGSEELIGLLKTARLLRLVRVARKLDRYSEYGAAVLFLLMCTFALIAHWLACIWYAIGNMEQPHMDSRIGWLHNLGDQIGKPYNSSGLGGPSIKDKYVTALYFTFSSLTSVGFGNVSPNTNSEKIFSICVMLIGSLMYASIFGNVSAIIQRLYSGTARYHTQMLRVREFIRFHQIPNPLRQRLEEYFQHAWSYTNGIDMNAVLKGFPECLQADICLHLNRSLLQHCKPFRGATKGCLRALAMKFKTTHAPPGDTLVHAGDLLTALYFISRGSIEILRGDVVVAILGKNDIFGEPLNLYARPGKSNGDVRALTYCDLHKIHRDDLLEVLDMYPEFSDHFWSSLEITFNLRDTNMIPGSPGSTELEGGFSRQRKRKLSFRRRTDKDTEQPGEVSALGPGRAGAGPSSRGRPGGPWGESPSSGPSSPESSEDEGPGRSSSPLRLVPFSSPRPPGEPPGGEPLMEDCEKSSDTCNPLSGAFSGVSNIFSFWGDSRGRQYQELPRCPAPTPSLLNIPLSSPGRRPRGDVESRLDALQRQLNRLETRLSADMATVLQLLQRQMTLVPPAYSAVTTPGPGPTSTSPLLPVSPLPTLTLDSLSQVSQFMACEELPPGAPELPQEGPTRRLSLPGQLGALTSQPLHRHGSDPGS
Chain of Acetylcholine receptor; alpha1/beta1/delta/gamma (P02708 whole entry): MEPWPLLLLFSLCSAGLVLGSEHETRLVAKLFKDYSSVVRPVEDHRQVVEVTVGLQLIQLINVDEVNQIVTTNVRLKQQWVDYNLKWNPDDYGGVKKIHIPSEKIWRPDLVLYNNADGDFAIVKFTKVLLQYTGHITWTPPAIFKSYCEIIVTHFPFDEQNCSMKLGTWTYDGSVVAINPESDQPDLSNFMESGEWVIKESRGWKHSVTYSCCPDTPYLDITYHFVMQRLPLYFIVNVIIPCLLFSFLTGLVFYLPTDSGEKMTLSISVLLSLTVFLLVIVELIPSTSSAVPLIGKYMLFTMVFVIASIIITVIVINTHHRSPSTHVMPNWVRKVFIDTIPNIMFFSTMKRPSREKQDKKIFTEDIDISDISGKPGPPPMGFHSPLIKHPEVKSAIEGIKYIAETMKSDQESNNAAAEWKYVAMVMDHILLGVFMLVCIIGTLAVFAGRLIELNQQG
Chain of Acetylcholine receptor; alpha1/beta1/delta/gamma (P07510 whole entry): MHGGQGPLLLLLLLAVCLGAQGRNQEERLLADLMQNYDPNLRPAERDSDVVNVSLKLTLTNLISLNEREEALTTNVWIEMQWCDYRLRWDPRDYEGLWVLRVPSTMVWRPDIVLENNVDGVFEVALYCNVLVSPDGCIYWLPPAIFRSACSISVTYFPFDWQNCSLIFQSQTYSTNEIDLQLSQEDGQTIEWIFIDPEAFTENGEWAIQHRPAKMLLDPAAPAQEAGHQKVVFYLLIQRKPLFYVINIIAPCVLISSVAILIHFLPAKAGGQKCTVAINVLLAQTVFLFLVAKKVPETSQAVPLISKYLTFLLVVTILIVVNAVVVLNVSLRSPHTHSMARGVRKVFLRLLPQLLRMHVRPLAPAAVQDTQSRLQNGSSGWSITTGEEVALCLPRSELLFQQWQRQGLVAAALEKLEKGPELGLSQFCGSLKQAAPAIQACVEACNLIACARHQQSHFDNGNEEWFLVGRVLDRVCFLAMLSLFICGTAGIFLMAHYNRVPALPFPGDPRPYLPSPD
Chain of Acetylcholine receptor; alpha1/beta1/delta/gamma (P11230 whole entry): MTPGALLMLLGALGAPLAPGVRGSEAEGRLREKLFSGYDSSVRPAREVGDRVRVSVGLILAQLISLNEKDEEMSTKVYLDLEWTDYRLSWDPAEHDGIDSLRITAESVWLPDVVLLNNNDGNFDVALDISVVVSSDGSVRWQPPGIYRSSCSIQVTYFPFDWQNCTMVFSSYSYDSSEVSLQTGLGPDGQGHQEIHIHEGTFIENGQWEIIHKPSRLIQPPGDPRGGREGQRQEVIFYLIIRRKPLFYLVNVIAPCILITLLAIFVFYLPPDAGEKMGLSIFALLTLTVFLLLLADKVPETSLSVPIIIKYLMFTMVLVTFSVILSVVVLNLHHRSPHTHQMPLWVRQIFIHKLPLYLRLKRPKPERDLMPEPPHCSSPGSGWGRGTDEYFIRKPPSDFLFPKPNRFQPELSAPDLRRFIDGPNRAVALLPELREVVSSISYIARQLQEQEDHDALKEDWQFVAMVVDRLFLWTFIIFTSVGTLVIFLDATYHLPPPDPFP
Chain of Acetylcholine receptor; alpha1/beta1/delta/gamma (Q07001 whole entry): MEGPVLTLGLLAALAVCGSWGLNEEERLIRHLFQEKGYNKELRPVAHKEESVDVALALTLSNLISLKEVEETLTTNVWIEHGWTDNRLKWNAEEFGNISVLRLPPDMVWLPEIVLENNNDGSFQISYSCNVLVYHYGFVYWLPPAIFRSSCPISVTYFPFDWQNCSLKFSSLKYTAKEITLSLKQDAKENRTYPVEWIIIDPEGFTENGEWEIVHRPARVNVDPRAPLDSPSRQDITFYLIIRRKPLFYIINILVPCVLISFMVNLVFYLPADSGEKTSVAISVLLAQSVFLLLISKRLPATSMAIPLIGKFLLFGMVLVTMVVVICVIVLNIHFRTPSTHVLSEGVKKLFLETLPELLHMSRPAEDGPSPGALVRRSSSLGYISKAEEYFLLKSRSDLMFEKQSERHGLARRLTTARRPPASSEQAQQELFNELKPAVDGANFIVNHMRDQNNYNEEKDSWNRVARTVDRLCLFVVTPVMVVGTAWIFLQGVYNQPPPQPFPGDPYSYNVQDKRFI
T1 sequence (P30926 whole entry): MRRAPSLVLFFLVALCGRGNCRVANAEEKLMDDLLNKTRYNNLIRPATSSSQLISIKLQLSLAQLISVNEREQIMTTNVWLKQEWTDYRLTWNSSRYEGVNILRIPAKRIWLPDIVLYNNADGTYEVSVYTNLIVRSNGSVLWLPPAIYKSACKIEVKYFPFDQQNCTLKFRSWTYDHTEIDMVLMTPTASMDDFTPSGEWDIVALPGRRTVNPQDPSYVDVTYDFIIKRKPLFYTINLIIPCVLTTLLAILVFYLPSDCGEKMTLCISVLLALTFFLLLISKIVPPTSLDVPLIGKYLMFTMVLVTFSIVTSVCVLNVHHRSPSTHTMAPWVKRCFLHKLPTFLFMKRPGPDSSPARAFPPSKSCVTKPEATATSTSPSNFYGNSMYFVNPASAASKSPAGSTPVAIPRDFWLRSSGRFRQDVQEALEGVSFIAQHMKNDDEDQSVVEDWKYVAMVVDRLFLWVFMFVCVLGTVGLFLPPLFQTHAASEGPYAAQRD
T1 sequence (P32297 whole entry): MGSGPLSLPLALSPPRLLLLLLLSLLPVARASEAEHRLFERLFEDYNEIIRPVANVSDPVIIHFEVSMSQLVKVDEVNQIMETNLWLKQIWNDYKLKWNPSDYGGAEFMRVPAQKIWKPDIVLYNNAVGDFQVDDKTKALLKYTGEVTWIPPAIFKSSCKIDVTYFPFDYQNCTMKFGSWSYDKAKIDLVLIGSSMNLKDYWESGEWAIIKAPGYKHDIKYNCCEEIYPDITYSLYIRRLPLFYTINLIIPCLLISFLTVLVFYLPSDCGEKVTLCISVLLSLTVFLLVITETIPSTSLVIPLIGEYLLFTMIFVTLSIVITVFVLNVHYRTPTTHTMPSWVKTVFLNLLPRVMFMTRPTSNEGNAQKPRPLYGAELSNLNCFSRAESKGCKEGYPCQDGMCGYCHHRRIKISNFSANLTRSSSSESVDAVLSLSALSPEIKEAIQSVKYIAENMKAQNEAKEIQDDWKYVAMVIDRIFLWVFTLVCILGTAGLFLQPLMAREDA
Chain of Neuronal acetylcholine receptor subunit alpha-7 (P36544 whole entry): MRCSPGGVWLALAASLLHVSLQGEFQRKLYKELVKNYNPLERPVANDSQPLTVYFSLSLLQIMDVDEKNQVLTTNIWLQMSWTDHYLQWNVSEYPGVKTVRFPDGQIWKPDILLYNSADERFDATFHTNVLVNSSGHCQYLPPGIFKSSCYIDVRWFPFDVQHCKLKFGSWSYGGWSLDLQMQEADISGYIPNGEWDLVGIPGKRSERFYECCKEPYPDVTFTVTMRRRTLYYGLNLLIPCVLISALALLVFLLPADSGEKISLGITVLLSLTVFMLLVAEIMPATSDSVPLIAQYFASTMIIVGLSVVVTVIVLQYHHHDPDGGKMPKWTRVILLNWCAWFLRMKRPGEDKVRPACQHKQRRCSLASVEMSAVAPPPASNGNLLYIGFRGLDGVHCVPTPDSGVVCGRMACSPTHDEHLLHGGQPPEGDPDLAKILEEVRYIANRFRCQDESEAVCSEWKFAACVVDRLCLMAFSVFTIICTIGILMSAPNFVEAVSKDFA

Row | SMILES | Ki [1] | Ki ([2]; hek293) | Efficacy [3] | Ki [5] | Ki [6] | EC50 [7] | Ki ([8]; read-out: Ki) | Ki [10] | Efficacy [11] | EC50 [12, 17] | efflux ratio [13] | Papp A→B [14] | other results
1 | Cl.c1cncc(-c2ccccc2O[C@H]2C[C@@H]3CNC[C@H]2C3)c1 | 3300 nM | Not Active | 35% | 2.15 nM | 1020 nM | < 100 nM | > 832 nM | 1.21 nM | – | – | – | – | Ratio (MDCK [4]): 1.65; Papp (MDCK [9]): 28.7 ×10⁻⁶ cm/s
2 | c1cncc(-c2ccccc2O[C@@H]2C[C@H]3CNC[C@@H]2C3)c1 | – | – | – | 78.5 nM | – | – | > 614 nM | 16.9 nM | 46% | 126 nM | – | – | –
3 | Cl.Oc1cncc(-c2ccccc2O[C@H]2C[C@@H]3CNC[C@H]2C3)c1 | > 13500 nM | Not Active | 230% | 0.177 nM | 1680 nM | 2.99 nM | 252 nM | 0.748 nM | – | – | – | – | Ratio (MDCK [4]): 5.02; EC50 ([12]; hek293, read-out: EC50): 279 nM; Papp (MDCK [9]): 3.36 ×10⁻⁶ cm/s
4 | Cl.Oc1cncc(-c2ccccc2O[C@@H]2C[C@H]3CNC[C@@H]2C3)c1 | > 15000 nM | Not Active | 70% | 7.16 nM | 8320 nM | 34.4 nM | 149 nM | 2.02 nM | 52% | – | 3.5 | 2.66 ×10⁻⁶ cm/s | –
5 | CS(=O)(=O)Nc1cncc(-c2ccccc2O[C@H]2C[C@@H]3CNC[C@H]2C3)c1.Cl | 4780 nM | Not Active | 148% | 0.168 nM | 11700 nM | 3.06 nM | 336 nM | 0.158 nM | – | – | 4.38 | 1.17 ×10⁻⁶ cm/s | minimal effective dose (Mus musculus [15]): 3.2 mg/kg; ED50 (Mus musculus [16]; read-out: ID50 (the source's name)): 0.66 mg/kg; minimal effective dose (Mus musculus [16]; read-out: MED): 0.1 mg/kg; EC50 ([12]; hek293, read-out: EC50): 3.27 nM
6 | CS(=O)(=O)Nc1cncc(-c2ccccc2O[C@@H]2C[C@H]3CNC[C@@H]2C3)c1.Cl | > 15000 nM | Not Active | 182% | 3.73 nM | > 15000 nM | 2.92 nM | 2900 nM | 1.33 nM | 122% | 2.27 nM | 4.65 | 0.84 ×10⁻⁶ cm/s | –
7 | CS(=O)(=O)Nc1cncc(-c2ccccc2O[C@H]2C[C@@H]3CNC[C@H]2C3)c1 | – | – | – | – | – | – | – | – | 120% | – | – | – | –
8 | Oc1cncc(-c2ccccc2O[C@H]2C[C@@H]3CNC[C@H]2C3)c1 | – | – | – | – | – | – | – | – | 118% | – | – | – | –
9 | Cl.c1cncc(-c2ccccc2O[C@H]2C[C@@H]3CNC[C@H]2C3)c1 (racemic) | – | – | 32.5% | 3.8 nM | – | 57 nM | > 1310 nM | 1.3 nM | – | 53 nM | 1.75 | 30.3 ×10⁻⁶ cm/s | Ki ([2]; read-out: Ki): 2160 nM
10 | COc1ccncc1-c1ccccc1O[C@H]1C[C@@H]2CNC[C@H]1C2.Cl (racemic) | – | – | 23% | 1.77 nM | – | < 100 nM | 477 nM | 0.882 nM | 49% | > 30000 nM | – | – | –
11 | COc1cncc(-c2ccccc2O[C@H]2C[C@@H]3CNC[C@H]2C3)c1.Cl (racemic) | – | Not Active | <20% | 9.01 nM | – | 32.7 nM | > 309 nM | 94.1 nM | 11% | 28.9 nM | 1.76 | 24.4 ×10⁻⁶ cm/s | –
12 | Cl.Oc1ccncc1-c1ccccc1O[C@H]1C[C@@H]2CNC[C@H]1C2 (racemic) | > 15000 nM | – | 91% | 3.15 nM | > 15300 nM | 16.3 nM | > 419 nM | 2.1 nM | 82% | 5 nM | – | – | –
13 | Cl.Oc1cncc(-c2ccccc2O[C@H]2C[C@@H]3CNC[C@H]2C3)c1 (racemic) | 1580 nM | – | 75% | 0.425 nM | 5000 nM | 2.59 nM | 255 nM | 0.186 nM | – | – | 5.84 | 4.05 ×10⁻⁶ cm/s | Ki ([2]; read-out: Ki): 1580 nM; EC50 ([12]; hek293, read-out: EC50): 4.3 nM
14 | Cl.Fc1ccncc1-c1ccccc1O[C@H]1C[C@@H]2CNC[C@H]1C2 (racemic) | – | – | – | 1.33 nM | – | 197 nM | – | 0.856 nM | 65% | 625 nM | 1.26 | 13.3 ×10⁻⁶ cm/s | –
15 | Cl.Fc1cncc(-c2ccccc2O[C@H]2C[C@@H]3CNC[C@H]2C3)c1 (racemic) | > 13500 nM | Not Active | 45% | 10.1 nM | > 16900 nM | 316 nM | > 1500 nM | 2.17 nM | 84.5% | 248 nM | 1.29 | 10 ×10⁻⁶ cm/s | –
16 | Cl.Nc1ccncc1-c1ccccc1O[C@H]1C[C@@H]2CNC[C@H]1C2 (racemic) | – | – | 61% | 2.05 nM | 4430 nM | 33.6 nM | > 1040 nM | 0.957 nM | 97% | 265 nM | – | – | –
17 | Cl.Nc1cncc(-c2ccccc2O[C@H]2C[C@@H]3CNC[C@H]2C3)c1 (racemic) | > 15000 nM | – | 107% | 5.83 nM | > 15000 nM | 33.9 nM | > 575 nM | 1.48 nM | 80.5% | 64.4 nM | – | – | –
18 | CS(=O)(=O)Nc1ccncc1-c1ccccc1O[C@H]1C[C@@H]2CNC[C@H]1C2.Cl (racemic) | 7590 nM | – | 48% | 5.21 nM | > 15000 nM | 112 nM | 250 nM | 0.382 nM | 117% | 4.3 nM | – | – | –
19 | CS(=O)(=O)Nc1cncc(-c2ccccc2O[C@H]2C[C@@H]3CNC[C@H]2C3)c1.Cl (racemic) | 4750 nM | – | 230% | 0.241 nM | > 13500 nM | 2.99 nM | > 424 nM | 0.243 nM | – | 3.15 nM | – | – | –
20 | CCS(=O)(=O)Nc1cncc(-c2ccccc2O[C@H]2C[C@@H]3CNC[C@H]2C3)c1.Cl (racemic) | 9870 nM | Not Active | 182% | 0.313 nM | > 15000 nM | 1.09 nM | > 604 nM | 0.149 nM | 108% | 0.37 nM | 0.93 | 0.44 ×10⁻⁶ cm/s | –
21 | CC(C)S(=O)(=O)Nc1cncc(-c2ccccc2O[C@H]2C[C@@H]3CNC[C@H]2C3)c1.Cl (racemic) | 14600 nM | Not Active | 160% | 0.202 nM | 4240 nM | 0.16 nM | 745 nM | 0.126 nM | 57% | 98.5 nM | 1.49 | 0.56 ×10⁻⁶ cm/s | –
22 | CC(=O)Nc1cncc(-c2ccccc2O[C@H]2C[C@@H]3CNC[C@H]2C3)c1.Cl (racemic) | > 15000 nM | – | 51% | 17.1 nM | 530 nM | 252 nM | > 615 nM | 9.53 nM | 100% | 35.4 nM | – | – | –
23 | CS(=O)(=O)Nc1cncc(-c2ccccc2O[C@H]2C[C@@H]3CNC[C@H]2C3)c1 (racemic) | – | – | – | – | – | – | – | – | 116% | – | – | – | –
24 | Oc1cncc(-c2ccccc2O[C@H]2C[C@@H]3CNC[C@H]2C3)c1 (racemic) | – | – | – | – | – | – | – | – | 117% | – | – | – | –
25 | c1cncc(-c2ccccc2O[C@H]2C[C@@H]3CNC[C@H]2C3)c1 (racemic) | – | – | – | – | – | – | – | – | 45% | – | – | – | –
26 | Cl.NC(=O)c1cncc(-c2ccccc2O[C@H]2C[C@@H]3CNC[C@H]2C3)c1 (stereo in doubt) | > 15000 nM | – | 59.5% | 12.5 nM | > 15000 nM | 36.8 nM | > 963 nM | 3.79 nM | 102% | – | – | – | EC50 ([12]; hek293): Not Active
27 | NC(=O)c1cncc(-c2ccccc2O[C@@H]2C[C@H]3CNC[C@@H]2C3)c1 (stereo in doubt) | – | – | – | 1130 nM | – | – | – | 496 nM | – | – | – | – | Ki ([8]; hek293): Not Active
28 | CN1CCC[C@H]1c1cccnc1 [NICOTINE] | – | – | – | 168 nM | 1480 nM | – | – | – | – | – | – | – | –
29 | c1cnc2cc3c(cc2n1)[C@@H]1CNC[C@H]3C1 [VARENICLINE] | – | – | – | 89 nM | 8200 nM | – | – | – | – | – | – | – | –
